Assay results reported in patent US12370209B2, “Methods for the use of 5′-adenosine diphosphate ribose (ADPR)” (Invirsa, Inc., priority 2016, dated 2025).
“Also recorded” adds a separate entry of the source. Where two headings read alike, the source gives them in different places.

Legend:
[1] = system: tumor necrosis factor alpha (TNF-α) mediated cytotoxicity; conditions: in vitro, levels as low as; cited from earlier work
[2] = system: adenovirus serotype 3; assay: Adenovirus plaque inhibition assay in A549 cells (Example 1); type: cell-based, Adenovirus serotype 3 (Ad3)
[3] = system: adenovirus serotype 3; assay: Plaque inhibition of adenovirus serotype 3 by ADPR and lithium chloride (Example 2); type: cell-based, Adenovirus serotype 3 (Ad3)
[4] = system: A549 cell monolayers; conditions: human
[5] = system: AsPC1—human pancreatic adenocarcinoma; assay: CellTiter-Glo cell viability assay, AsPC1; type: cell-based
[6] = system: H1437—human, lung adenocarcinoma, non-small cell lung cancer; assay: CellTiter-Glo cell viability assay, H1437; type: cell-based
[7] = system: U87-MG—human, brain glioblastoma; assay: CellTiter-Glo cell viability assay, U87-MG; type: cell-based
[8] = system: MV411—human, myelomonocytic leukemia; assay: CellTiter-Glo cell viability assay, MV411; type: cell-based
[9] = system: A549 cell monolayers
[10] = system: Adenovirus 3; assay: Plaque inhibition by dilithium ADPR, Ad3 in A549 cells (Example 5); type: cell-based, Adenovirus 3 (Ad3); conditions: 4, 2, 1 and 0.5 mg/mL
Method: (§1) Dilithium ADPR, 150 mg powder, was stored in a glass vial (“Sample A”) at 4° C. in the dark until use. On the day of assay, Sample A was solubilized to 200 mg/ml in 750 μL water for irrigation, then further diluted to target concentrations. […] Solubilized Sample A was tested for plaque inhibitory properties against Adenovirus 3 and Adenovirus 5 (Ad3 & Ad5).
(§2) Solubilized Sample A was diluted to 4 mg/mL, 2 mg/mL, 1 mg/mL and 0.5 mg/mL in Virus Growth Media (DMEM, 2% Fetal Bovine Serum (FBS) and antibiotic, antimycotic).
(§3) A549 cells were plated 7×10^4 cells per well in 6-well plates. After 18 hours, growth media was removed and 1 mL of each sample mixtures was added per well. After incubating for one hour at 37° C., approximately 50-75 plaque forming units Ad3 and separately Ad5 were added per well. Virus adsorbed to the cells for two hours and then media was aspirated from the monolayers and replaced with Virus Growth Media containing Sample A dilutions of 0, 0.5, 1.0, 2.0, and 4.0 mg/mL, and agarose.

[11] = system: Adenovirus 5; assay: Plaque inhibition by dilithium ADPR, Ad5 in A549 cells (Example 5); type: cell-based, Adenovirus 5 (Ad5); conditions: 4, 2, 1 and 0.5 mg/mL
Method: as §1, §2, §3

[12] = system: A549 cells; assay: Thinning of the A549 monolayer in the plaque assay (Example 5); type: cell-based, human
Method: as §3
Ad3 and Ad5 plaque size and number were reduced by Sample A at 4 mg/mL and 2 mg/mL. […] The thin monolayer made it hard to delineate plaques. Very few plaques were visible as compared to control. […] Mean plaque counts at Sample A concentrations were as follows: • Ad3: 4 mg/mL-29; 2 mg/mL-10; 1 mg/mL-44; 0.5 mg/mL-54; 0 mg/mL-55 • Ad5: 4 mg/mL-7; 2 mg/mL-7; 1 mg/mL-25; 0.5 mg/mL-53; 0 mg/mL-65 Conclusion

[13] = system: A549 (human alveolar adenocarcinoma) cell culture; assay: MTT incorporation in A549 cell culture (Example 8); type: cell-based; conditions: for Average MTT incorporation as measured by OD560: 48 hours
Method: ADPR, sodium Salt, (Sigma A0752), was tested in A549 (human alveolar adenocarcinoma) cell culture to determine its effect on replication. ADPR was evaluated at five concentrations by incubation for 48 hours with A549 cells (previously grown to a monolayer) at 37° C. After incubation, MTT (3-(4,5-dimethylthiaz ol-2-yl)-2,5-diphenyltetrazolium bromide) dye was added to each well and live cells were measured by blue dye incorporation.

[14] = system: A549 cell monolayers; assay: Toxicity score on A549 cell monolayers (Example 1)
[15] = system: A549 cell monolayers; assay: Toxicity score on A549 cell monolayers (Example 2)
[16] = system: Adenovirus serotype 5 (Ad5); assay: Viral keratoconjunctivitis model, modified McDonald-Shadduck scoring (Example 6); type: in vivo, Oryctolagus cuniculus (New Zealand White rabbits)
Source text: • Species: Oryctolagus cuniculus • Strain: New Zealand White rabbits • Sex: Female • Age: Commensurate with weight • Weight: Approximately 2.5 to 3.0 kilograms at study start • Number: 8 (naïve) • Method of Identification: Ear tag and cage label • Minimum Acclimation: 5 days
• 1. Inoculum—Adenovirus serotype 5 (Ad5) • (a) Physicochemical Characteristics and Composition Description: Virus propagated in A549 cells in DMEM with 8% fetal bovine serum. Cells and supernatant harvested, sonicated, and clarified by low speed centrifugation. Infectious titer by TCID50: 5.0×109 plaque-forming-units (PFU) per mL. • (b) Storage Condition: frozen at −60 to −80° C. • 2. Test Article—Dilithium ADPR • (a) Molecular weight: approximately 571.18 • (b) Storage Condition: Refrigerated at 2-8° C. • 3. Control Vehicle • (a) Composition: 0.31% sodium chloride, 0.1% sodium tetraborate, 1% boric acid, 0.35% polyethylene glycol 300 (PEG-300) in deionized (DI) water • (b) Storage Condition: Refrigerated at 2° C.-8° C. • 4. Test/Control Article Preparation • (a) Ad5 was supplied in a single aliquot for both days of inoculation. Immediately prior to the first viral inoculation on Day −1, the virus was thawed and brought to room temperature. 0.05 mL (50 μL) of the 5.0×10^9 PFU Ad5/mL solution was diluted with 1.5 mL of Dulbecco's Modified Eagle Medium (DMEM) to create a 1.61×10^8 PFU Ad5/mL solution. After the first inoculation on Day −1, the remaining virus solution was stored refrigerated at 2-8° C. until the second inoculation on Day 0. Virus solution was not re-frozen. • (b) Vehicle: 55.8 mg sodium chloride, 18 mg of sodium tetraborate, 180 mg of boric acid, and 63 mg of PEG-300 were weighed out into a vial. 14 mL DI water was added, and vial contents were swirled, vortexed, and/or sonicated if needed until a clear solution is formed. The pH of the solution was tested using pH tester strips and adjusted to 7.0-7.2, if necessary, using sodium hydroxide (NaOH) or additional boric acid. The volume was then brought up to 18 mL with additional DI water to make a 0.31% sodium chloride, 0.1% sodium tetraborate, 1% boric acid, 0.35% PEG-300 solution. The vial contents were sterile filtered through a 0.2 or 0.22 μm filter. • (c) Dilithium ADPR—High Dose: 240 mg of dilithium ADPR was weighed out into a vial. 12 mg of sodium tetraborate, 120 mg of boric acid, and 42 mg of PEG-300 were weighed out into a separate vial. 7 mL DI water was added, and vial contents were swirled, vortexed, and/or sonicated if needed until a clear solution is formed. The solution was transferred to the vial containing dilithium ADPR. The volume was brought up to […] with DI water, and vial contents were swirled, vortexed, and/or sonicated if needed until a clear solution is formed. […]

[17] = AsPC1, 72 hours treatment, average of two values
[18] = H1437, 72 hours treatment, average of two values
[19] = U87-MG, 72 hours treatment, average of two values
[20] = MV411, 72 hours treatment, average of two values
[21] = 0.5%, 1% and 2% topical TID, Day 3 and Day 7 compared to baseline on Day 1, p<0.01

For Nc1ncnc2c1ncn2[C@@H]1O[C@H](COP(=O)(O)OP(=O)(O)OC[C@H]2OC(O)[C@H](O)[C@@H]2O)[C@@H](O)[C@H]1O (some centres unmarked) [ADPR, 5′-adenosine diphosphate ribose], the “ADPR level with measurable inhibition of TNF-α mediated cytotoxicity” value [1] is given as 5 mg/L.
With Nc1ccn(C[C@@H](CO)OCP(=O)(O)O)c(=O)n1 [Cidofovir] the “Plaque Counts” value ([2]; 20 μM Cidofovir) was 39, the Plaque appearance ([2]; 100 μM Cidofovir) was “pinpoint” and the “Plaque size and number” value ([2]; cidofovir, as concentrations were increased (20, 100 μM)) was “decreased”. For the same molecule, the Plaque appearance ([3]; 3 μM Cidofovir) was “small plaques” and the Plaque appearance ([3]; 33 μM Cidofovir) was “Pinpoint plaques”.
With NC(=O)c1cccnc1 [Compound N, Nicotinamide] the Plaque appearance ([2]; 600 μg/ml nicotinamide alone) was “much larger”, the “Plaque Counts” value ([2]; Compound N 6000 μg/ml, 0 μg/ml Compound A, Ad3, A549) was “Toxic” and the “Toxicity Scores (T value)” value ([4]; 60 μg/ml) was “T = 0”. The “Toxicity Scores (T value)” value ([4]; 600 μg/ml) was “T = 2” and the “Toxicity Scores (T value)” value ([4]; 6000 μg/ml) was “T = 3”.
In the case of CCc1c2c(nc3ccc(O)cc13)-c1cc3c(c(=O)n1C2)COC(=O)[C@]3(O)CC [SN38], the IC50 [5, 17] is reported as 1.5 µM, the IC50 [6, 18] is reported as 0.2 µM and the IC50 [7, 19] is reported as 1.2 µM. The IC50 [8, 20] was 1.17 µM.
In the case of [Cl-].[Li+] [Sample L, Lithium Chloride], the Plaque appearance [3] is reported as “much larger; also recorded: very large plaques”, the IC50 [5] is reported as > 3000 µM and the IC50 [6] is reported as > 3000 µM. For the same molecule, the IC50 [7] was > 3000 µM, the IC50 [8] was > 6000 µM and the “Toxicity Scores (T value)” value [9] was “T = 0”.
For “Adenosine 5′-diphosphoribose Sodium Salt [Compound A]”, the “Plaque size as compared to control” value ([2]; Compound A at 2000 and 6000 μg/ml) was “reduced”, the “Plaque size as compared to control” value ([3]; Sample A at 0.44, 1.33 and 4.0 mM) was “reduced” and the “Plaque size and number” value [10] was “reduced”. For the same molecule, the “Plaque size and number” value [11] was “reduced”, the “Monolayer compared to cell control wells” value ([12]; 1 mg/mL and 0.5 mg/mL) was “slight thinning” and the “Monolayer compared to control wells” value ([12]; 4 and 2 mg/mL) was “moderate thinning”. For the same molecule, the “Average MTT incorporation as measured by OD560” value (“Average MTT incorporation” for short) ([13]; 1.5 mg/mL) was 0.62±0.08, the “Average MTT incorporation” value ([13]; 3 mg/mL) was 0.61±0.09 and the “Average MTT incorporation” value ([13]; 6 mg/mL) was 0.72±0.04. For the same molecule, the “Average MTT incorporation” value ([13]; 12 mg/mL) was 0.69±0.01, the “Average MTT incorporation” value ([13]; 24 mg/mL) was 0.55±0.02 and the “Effect on MTT incorporation” value ([13]; at 24 mg/mL) was “mild reduction”. The “Effect on MTT incorporation” value ([13]; up to 12 mg/mL (equal to 21 mM)) was “did not reduce”, the “Toxicity Scores (T value)” value ([14]; Compound A 2000 μg/ml) was “T = 0” and the “Toxicity Scores (T value)” value ([14]; Compound A 6000 μg/ml) was “T = 0”. The “Toxicity Scores (T value)” value ([15]; Sample A 0.44 mM) was “T = 0”, the “Toxicity Scores (T value)” value ([15]; Sample A 1.33 mM) was “T = 0” and the “Toxicity Scores (T value)” value ([15]; Sample A 4.0 mM) was “T = 0”.
With Dilithium ADPR the “Composite modified McDonald-Shadduck score (total of all sub scores)” value [16, 21] was “significantly improved; also recorded: significant improvement”, the Subscore conjunctival congestion [16, 21] was “improvement that was statistically significant” and the “Subscore surface area of corneal involvement” value ([16]; 0.5%, 1% and 2% topical TID, Day 3 and Day 7 compared to baseline on Day 1, p<0.05) was “improvement that was statistically significant”. The “Reduction in the composite score” value ([16]; all doses (0.5%, 1.0% and 2.0%), by Day 7) was > 80%, the IC50 [5, 17] was 570 µM and the IC50 [6, 18] was 531 µM. It also gave an IC50 [7, 19] of 1560 µM and an IC50 [8, 20] of 323 µM.
